# In patent publication US20250205191A1, “R(-)-MDMA COMPOSITIONS AND METHODS OF TREATMENT” (EmpathBio, Inc., priority 2023, published 2025):
# Assays:
# [1] = target: T1, human 5-HT2C (non-edited) receptor (Homo sapiens, UniProt P28335); assay: 5-HT2C (non-edited) agonism, inositol monophosphate accumulation (HTRF), CHO-K1 recombinant cells; type: cell-based; settings: 5-HT2C (non-edited); relative to α-Me-5-HT at its EC100
# T1 construct: expressed in transfected cells; host or cells: CHO-K1
# T1 sequence (P28335 33-458): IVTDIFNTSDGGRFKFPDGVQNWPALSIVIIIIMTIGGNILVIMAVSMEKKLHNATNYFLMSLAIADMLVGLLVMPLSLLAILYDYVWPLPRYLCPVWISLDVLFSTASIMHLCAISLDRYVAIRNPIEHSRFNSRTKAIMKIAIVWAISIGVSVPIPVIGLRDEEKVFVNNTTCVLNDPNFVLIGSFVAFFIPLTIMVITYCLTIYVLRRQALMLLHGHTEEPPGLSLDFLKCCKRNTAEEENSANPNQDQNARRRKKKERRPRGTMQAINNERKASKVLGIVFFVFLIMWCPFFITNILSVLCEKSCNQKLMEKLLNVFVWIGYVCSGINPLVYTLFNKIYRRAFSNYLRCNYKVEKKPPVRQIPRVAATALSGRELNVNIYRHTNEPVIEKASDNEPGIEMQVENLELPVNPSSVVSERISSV
# male C57BL/6J mice = assay: Mouse extinction of fear learning assay; type: in vivo; settings: 7.8 mg/kg IP once, vs vehicle
# Method: Extinction of fear learning in rodents is a useful assay to understand if compounds have the potential to enhance learning processes that may be involved in recovery from SAD and other stress and anxiety related disorders, due to its resemblance to exposure-based therapy in humans. […] Freezing behavior, an indicator of the fear response, was measured in the presence of the CS during the extinction training session (Day 1) and the day after (Day 2, Extinction Testing, in the absence of test article). Locomotor activity was measured during the initial 2-minute habituation period, prior to the presentation of the CS, on Days 1 and 2.
# human 5-HT2A receptor = target: T2, human 5-HT2A receptor (Homo sapiens, UniProt P28223); assay: 5-HT2A agonism, inositol monophosphate accumulation (HTRF), CHO-K1 recombinant cells; type: cell-based; settings: 5-HT2A
# T2 construct: expressed in transfected cells; host or cells: CHO-K1
# healthy volunteers [2] = settings: racemic MDMA at 125 mg, comparison in FIG. 11; cited from earlier work
# human 5-HT2B receptor = target: T3, human 5-HT2B receptor (Homo sapiens, UniProt P41595); assay: 5-HT2B agonism, inositol monophosphate accumulation (HTRF), CHO-K1 recombinant cells; type: cell-based; settings: 5-HT2B
# T3 construct: expressed in transfected cells; host or cells: CHO-K1
# [3] = target: T4, human 5-HT2C (edited) receptor (Homo sapiens, UniProt P28335); assay: 5-HT2C (edited) agonism, inositol monophosphate accumulation (HTRF), CHO-K1 recombinant cells; type: cell-based; settings: 5-HT2C (edited); relative to α-Me-5-HT at its EC100
# T4 sequence (P28335 33-458): T1 sequence (P28335 33-458)
# healthy volunteers [4] = settings: published report (Hysek et al., 2014); cited from earlier work
# [5] = test system: rat embryonic cortical neurons; assay: In vitro rat cortical neurite outgrowth; type: cell-based; settings: 250 nM positive control, vs vehicle
# Method: The experiment included a 0.1% sterile water vehicle negative control condition and a 250 nM donepezil positive control condition, and the number of neurites per neuron, total neurite length per neuron and branchpoints per neuron from n=12 wells per treatment were compared to the vehicle control condition.
# [6] = Phase 1 clinical study, plasma pharmacokinetics; settings: for AUC0-t / Cmax / t1/2: mean (SD); for Tmax: median (minimum, maximum)
# [7] = Phase 1 clinical study, urine pharmacokinetics (urinalysis); type: in vivo, human
# [8] = relative to α-Me-5-HT at its EC100
# [9] = plasma analyte after oral 125 mg R(−)-MDMA, Day 9
# [10] = plasma analyte after single oral 75 mg R(−)-MDMA, Day 1
# [11] = plasma analyte after single oral 125 mg R(−)-MDMA, Day 1
# [12] = plasma analyte after single oral 175 mg R(−)-MDMA, Day 1
# [13] = plasma analyte after single oral 225 mg R(−)-MDMA, Day 1
# [14] = urine analyte after EMP-01 125 mg, Day 9
# [15] = urine analyte after single oral 75 mg R(−)-MDMA, Day 1
# [16] = urine analyte after single oral 125 mg R(−)-MDMA, Day 1
# [17] = urine analyte after single oral 175 mg R(−)-MDMA, Day 1
# [18] = urine analyte after single oral 225 mg R(−)-MDMA, Day 1
# T2 sequence (P28223 whole entry): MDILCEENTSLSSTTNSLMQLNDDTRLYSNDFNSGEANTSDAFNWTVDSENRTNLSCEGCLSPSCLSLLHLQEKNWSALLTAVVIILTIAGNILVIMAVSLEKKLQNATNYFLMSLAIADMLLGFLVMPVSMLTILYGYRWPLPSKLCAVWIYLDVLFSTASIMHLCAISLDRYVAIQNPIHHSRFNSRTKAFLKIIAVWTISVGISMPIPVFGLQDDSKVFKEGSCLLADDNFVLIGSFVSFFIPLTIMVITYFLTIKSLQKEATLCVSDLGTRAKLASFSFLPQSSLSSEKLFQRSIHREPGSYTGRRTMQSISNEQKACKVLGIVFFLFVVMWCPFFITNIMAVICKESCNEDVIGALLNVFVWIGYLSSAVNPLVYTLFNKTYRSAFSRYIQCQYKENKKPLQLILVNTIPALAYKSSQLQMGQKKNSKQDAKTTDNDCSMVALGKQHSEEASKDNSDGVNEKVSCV
# T3 sequence (P41595 whole entry): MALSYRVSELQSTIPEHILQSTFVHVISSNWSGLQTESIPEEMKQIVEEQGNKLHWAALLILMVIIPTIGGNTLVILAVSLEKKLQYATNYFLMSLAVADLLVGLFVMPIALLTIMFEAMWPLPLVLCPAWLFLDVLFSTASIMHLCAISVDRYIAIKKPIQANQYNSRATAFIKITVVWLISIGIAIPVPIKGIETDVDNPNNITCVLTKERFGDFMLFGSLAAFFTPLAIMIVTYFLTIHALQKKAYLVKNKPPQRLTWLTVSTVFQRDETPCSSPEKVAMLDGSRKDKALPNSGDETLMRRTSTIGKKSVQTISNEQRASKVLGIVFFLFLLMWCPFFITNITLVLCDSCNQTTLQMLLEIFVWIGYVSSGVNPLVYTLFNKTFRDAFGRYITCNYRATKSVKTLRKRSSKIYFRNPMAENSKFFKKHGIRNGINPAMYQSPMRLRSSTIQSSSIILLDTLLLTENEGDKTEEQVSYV
compound,measurement,setting,value
"CNC(C)Cc1ccc2c(c1)OCO2 (racemic) [Racemic MDMA, 3,4-methylenedioxymethamphetamine, reference compound]",Efficacy (% of a-Me-5-HT response),[1],95.3%
same,freezing behavior,male C57BL/6J mice; 30 min prior to extinction training,significantly reduced freezing behavior on Days 1 and 2
same,locomotor activity,male C57BL/6J mice,increased locomotor activity on Days 1 and 2
same,EC50,"human 5-HT2A receptor; CHO-K1, IP accumulation",4.73 µM
same,Efficacy (% of a-Me-5-HT response),human 5-HT2A receptor; [8],68.4%
same,11D-ASC response profile,healthy volunteers [2],no visual hallucinations and little to no insight
same,EC50,"human 5-HT2B receptor; CHO-K1, IP accumulation",0.194 µM
same,Efficacy (% of a-Me-5-HT response),human 5-HT2B receptor; [8],91.2%
same,Efficacy (% of a-Me-5-HT response),[3],97.7%
same,reduction of bias to angry faces,healthy volunteers [4],12.5%
"COc1cc2c(cc1OC)C(=O)C(CC1CCN(Cc3ccccc3)CC1)C2 (stereo not shown) [Donepezil, reference compound]",branchpoints per neuron,[5],significantly and robustly increased
same,number of neurites per neuron,[5],significantly and robustly increased
same,total neurite length per neuron,[5],significantly and robustly increased
C[C@@H](N)Cc1ccc2c(c1)OCO2 [R-MDA],time of peak of mean plasma concentration,[6]; metabolite after oral R(−)-MDMA,approximately 12 hours postdose
same,AUC0-t,[6]; [9],291.6730 (112.2988) h · ng/mL
same,Cmax,[6]; [9],13.3733 (2.3199) ng/mL
same,t1/2,[6]; [9],143.1218 (145.7332) hr
same,Tmax,[6]; [9],"12.042 (12.00, 30.00) hr"
same,AUC0-t,[6]; [10],183.2765 (40.5712) h · ng/mL
same,Cmax,[6]; [10],7.6733 (1.6139) ng/mL
same,t1/2,[6]; [10],39.0473 (19.0557) hr
same,Tmax,[6]; [10],"12.000 (10.00, 12.00) hr"
same,AUC0-t,[6]; [11],307.4702 (66.2889) h · ng/mL
same,Cmax,[6]; [11],12.7950 (3.1122) ng/mL
same,Tmax,[6]; [11],"12.025 (12.00, 30.03) hr"
same,AUC0-t,[6]; [12],272.6761 (57.5614) h · ng/mL
same,Cmax,[6]; [12],11.2820 (2.1914) ng/mL
same,Tmax,[6]; [12],"18.000 (12.00, 18.00) hr"
same,AUC0-t,[6]; [13],413.2388 (193.5541) h · ng/mL
same,Tmax,[6]; [13],"21.050 (18.00, 30.00) hr"
same,"Ae12-24, amount excreted at the 12-24 hour collection interval",[7]; [14],0.9794 (0.8552) mg
same,"CAe, cumulative amount of drug excreted",[7]; [14],0.9794 (0.8552) mg
same,"CFe, cumulative fraction of drug excreted",[7]; [14],1.2746 (0.7265) %
same,"CLr, renal clearance rate",[7]; [14],5.3793 (1.5400) L/h
same,"Fe12-24, fraction of drug excreted at the 12-24 hour collection interval",[7]; [14],0.7835 (0.6842) %
same,"Ae12-24, amount excreted at the 12-24 hour collection interval",[7]; [15],0.4622 (0.1101) mg
same,"CAe, cumulative amount of drug excreted",[7]; [15],0.8510 (0.2149) mg
same,"CFe, cumulative fraction of drug excreted",[7]; [15],1.1347 (0.2865) %
same,"CLr, renal clearance rate",[7]; [15],4.6787 (0.8471) L/h
same,"Fe12-24, fraction of drug excreted at the 12-24 hour collection interval",[7]; [15],0.6163 (0.1468) %
same,"Ae12-24, amount excreted at the 12-24 hour collection interval",[7]; [16],0.7850 (0.4299) mg
same,"CAe, cumulative amount of drug excreted",[7]; [16],1.1628 (0.4509) mg
same,"CFe, cumulative fraction of drug excreted",[7]; [16],0.9302 (0.3608) %
same,"CLr, renal clearance rate",[7]; [16],3.7173 (0.9547) L/h
same,"Fe12-24, fraction of drug excreted at the 12-24 hour collection interval",[7]; [16],0.6280 (0.3440) %
same,"Ae12-24, amount excreted at the 12-24 hour collection interval",[7]; [17],0.7076 (0.4510) mg
same,"CAe, cumulative amount of drug excreted",[7]; [17],1.4788 (0.8740) mg
same,"CFe, cumulative fraction of drug excreted",[7]; [17],0.8450 (0.4995) %
same,"CLr, renal clearance rate",[7]; [17],4.3945 (2.1019) L/h
same,"Fe12-24, fraction of drug excreted at the 12-24 hour collection interval",[7]; [17],0.4043 (0.2577) %
same,"Ae12-24, amount excreted at the 12-24 hour collection interval",[7]; [18],0.8450 (0.4995) mg
same,"CAe, cumulative amount of drug excreted",[7]; [18],1.9805 (0.8173) mg
same,"CFe, cumulative fraction of drug excreted",[7]; [18],0.5432 (0.2708) %
same,"CLr, renal clearance rate",[7]; [18],5.1337 (2.2871) L/h
same,"Fe12-24, fraction of drug excreted at the 12-24 hour collection interval",[7]; [18],0.8802 (0.3633) %
